Measured values as given in publication PMC7094550 (Experimental Parasitology, 2017).

Molecular target: T1, Leishmania donovani HMG-CoA reductase (LdHMGR) (Leishmania donovani, UniProt A0A3S7X3U0)
T1 sequence (A0A3S7X3U0 1-434): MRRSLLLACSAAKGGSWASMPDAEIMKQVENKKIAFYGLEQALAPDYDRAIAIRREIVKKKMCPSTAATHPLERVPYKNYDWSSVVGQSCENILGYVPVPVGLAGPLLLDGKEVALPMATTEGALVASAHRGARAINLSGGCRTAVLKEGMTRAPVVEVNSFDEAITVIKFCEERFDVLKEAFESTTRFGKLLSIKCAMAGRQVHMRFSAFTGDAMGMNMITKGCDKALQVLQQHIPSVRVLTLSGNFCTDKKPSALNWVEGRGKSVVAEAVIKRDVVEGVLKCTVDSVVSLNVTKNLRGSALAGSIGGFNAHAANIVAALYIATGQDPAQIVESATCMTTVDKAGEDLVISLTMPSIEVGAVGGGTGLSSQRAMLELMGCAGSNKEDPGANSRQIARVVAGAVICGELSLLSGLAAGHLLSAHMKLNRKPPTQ
Test: NADPH oxidation assay at […] nm with purified recombinant enzyme
Assay type: biochemical

IC50: 300 nM
SMILES: CC(C)c1c(C(=O)Nc2ccccc2)c(-c2ccccc2)c(-c2ccc(F)cc2)n1CC[C@@H](O)C[C@@H](O)CC(=O)O [Atorvastatin]
